Source: US20260103455A1, “ULK3 INHIBITORS AND USES THEREOF” (H. LEE MOFFITT CANCER CENTER AND RESEARCH INSTITUTE, INC., priority 2022, published 2026)
Several values for one entry are separate records, joined by “and”; a condition that tells them apart may be missing. Equal values may be shown once.

What was measured:
ULK3 [1] = molecular target: T1, ULK3 (Homo sapiens, UniProt Q6PHR2); experiment: IC50 for ULK3, Reaction Biology kinase assay (32P Hotspot assay); assay type: biochemical
T1 sequence (Q6PHR2 1-472): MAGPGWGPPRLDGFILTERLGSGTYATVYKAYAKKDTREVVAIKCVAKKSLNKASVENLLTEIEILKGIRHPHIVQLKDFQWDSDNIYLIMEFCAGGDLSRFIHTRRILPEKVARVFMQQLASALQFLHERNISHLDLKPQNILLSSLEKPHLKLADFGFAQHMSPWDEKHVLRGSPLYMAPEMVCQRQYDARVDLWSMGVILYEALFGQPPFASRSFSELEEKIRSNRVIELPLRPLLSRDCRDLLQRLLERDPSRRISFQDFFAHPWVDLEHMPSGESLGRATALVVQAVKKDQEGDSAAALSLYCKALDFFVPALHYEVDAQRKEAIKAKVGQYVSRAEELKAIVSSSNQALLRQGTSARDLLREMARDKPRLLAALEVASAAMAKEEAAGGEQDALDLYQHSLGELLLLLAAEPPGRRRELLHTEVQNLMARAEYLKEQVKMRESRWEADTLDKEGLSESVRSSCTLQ

JAK2 [2] = molecular target: T2, JAK2 (Homo sapiens, UniProt O60674); experiment: IC50 for JAK2, Reaction Biology kinase assay (32P Hotspot assay); assay type: biochemical
T2 sequence (O60674 whole entry): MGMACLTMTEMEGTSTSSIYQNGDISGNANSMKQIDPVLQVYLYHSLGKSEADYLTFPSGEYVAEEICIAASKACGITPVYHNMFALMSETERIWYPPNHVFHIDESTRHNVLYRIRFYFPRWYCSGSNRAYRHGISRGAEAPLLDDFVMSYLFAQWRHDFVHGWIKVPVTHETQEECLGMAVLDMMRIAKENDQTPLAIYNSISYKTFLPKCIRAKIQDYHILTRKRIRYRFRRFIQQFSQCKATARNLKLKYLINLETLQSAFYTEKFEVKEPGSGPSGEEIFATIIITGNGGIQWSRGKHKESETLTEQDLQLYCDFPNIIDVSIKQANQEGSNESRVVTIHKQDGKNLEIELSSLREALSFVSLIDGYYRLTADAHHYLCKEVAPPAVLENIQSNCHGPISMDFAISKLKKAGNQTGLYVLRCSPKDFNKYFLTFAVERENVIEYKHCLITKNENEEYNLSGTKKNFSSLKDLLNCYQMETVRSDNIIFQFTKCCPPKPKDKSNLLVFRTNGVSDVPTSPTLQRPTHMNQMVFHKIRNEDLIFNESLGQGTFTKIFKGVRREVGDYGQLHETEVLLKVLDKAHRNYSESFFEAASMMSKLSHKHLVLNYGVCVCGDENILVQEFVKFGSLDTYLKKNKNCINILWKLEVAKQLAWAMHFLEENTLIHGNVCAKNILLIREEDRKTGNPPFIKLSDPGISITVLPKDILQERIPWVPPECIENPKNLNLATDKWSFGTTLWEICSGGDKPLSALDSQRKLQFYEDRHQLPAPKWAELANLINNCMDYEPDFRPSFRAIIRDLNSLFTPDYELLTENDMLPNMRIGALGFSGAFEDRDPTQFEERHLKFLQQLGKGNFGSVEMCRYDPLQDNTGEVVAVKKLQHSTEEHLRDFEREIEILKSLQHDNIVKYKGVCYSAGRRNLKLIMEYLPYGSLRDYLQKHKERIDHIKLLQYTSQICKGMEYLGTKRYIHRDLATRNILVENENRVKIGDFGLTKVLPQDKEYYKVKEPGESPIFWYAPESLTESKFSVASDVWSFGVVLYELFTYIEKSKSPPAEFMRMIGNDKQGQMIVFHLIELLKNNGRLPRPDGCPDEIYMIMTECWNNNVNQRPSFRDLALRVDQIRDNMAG

8226 = experiment: GI50 (MM cell) 8226; assay type: cell-based
OPM2 = experiment: GI50 (MM cell) OPM2; assay type: cell-based; conditions: Homo sapiens, OPM-2
ULK3 [3] = molecular target: T1, ULK3; experiment: DSF (ULK3) thermal shift; assay type: binding
U266 PSR = experiment: GI50 (MM cell) U266 PSR; assay type: cell-based; conditions: Homo sapiens, U-266
8226 B25 = experiment: GI50 (MM cell) 8226 B25; assay type: cell-based
U266 = experiment: GI50 (MM cell) U266; assay type: cell-based; conditions: Homo sapiens, U-266
JAK2 [4] = molecular target: T2, JAK2; experiment: DSF (JAK2) thermal shift; assay type: binding

Row | IC50 (ULK3 [1]) | IC50 (JAK2 [2]) | DSF (ULK3) ΔTm (° C.) (ULK3 [3]) | GI50 (U266 PSR) | GI50 (U266) | DSF (JAK2) ΔTm (° C.) (JAK2 [4]) | Compound | GI50 8226 | GI50 (OPM2) | GI50 (8226 B25)
1 | 8.71 nM | 1.31 nM | 14.3 °C and 14.4 °C | 1580 nM | 210 nM | – | CC(NC(=O)c1ccc(-c2ccnc(Nc3ccc(N4CCOCC4)cc3)n2)cc1)C(F)(F)F (racemic) [SR8-170, (RS)-4-(2-((4-Morpholinophenyl)amino)pyrimidin-4-yl)-N-(1,1,1-trifluoropropan-2-yl)benzamide] | 290 nM | 6700 nM | 404 nM
2 | – | 12.9 nM | – | – | – | 1.0 °C | CC(C)(C)[C@@H](CO)NC(=O)c1ccc(-c2ccnc(Nc3ccc(N4CCOCC4)cc3)n2)cc1 [BH1-062, (S)—N-(1-Hydroxy-3,3-dimethylbutan-2-yl)-4-(2-((4-morpholinophenyl)amino)pyrimidin-4-yl)benzamide] | – | – | –
3 | – | 1.25 nM | 15.0 °C | – | – | 2.1 °C | Cc1cnc(Nc2ccc(N3CCOCC3)cc2)nc1Nc1ccc(Cl)c(NS(=O)(=O)C(C)(C)C)c1 [BH1-150] | – | – | –
4 | – | 1.13 nM | 14.0 °C | – | – | 0.4 °C | C[C@@H](NC(=O)c1ccc(-c2ccnc(Nc3ccc(N4CCOCC4)cc3)n2)cc1)C(F)(F)F [BH1-151, (R)-4-(2-((4-Morpholinophenyl)amino)pyrimidin-4-yl)-N-(1,1,1-trifluoropropan-2-yl)benzamide] | – | – | –
5 | – | 0.746 nM | 12.5 °C | – | – | 0.7 °C | C[C@H](NC(=O)c1ccc(-c2ccnc(Nc3ccc(N4CCOCC4)cc3)n2)cc1)C(F)(F)F [BH1-152, (S)-4-(2-((4-Morpholinophenyl)amino)pyrimidin-4-yl)-N-(1,1,1-trifluoropropan-2-yl)benzamide] | – | – | –
6 | – | 74.2 nM | – | – | – | 1.1 °C | O=C(c1ccc(-c2ccnc(Nc3ccc(N4CCOCC4)cc3)n2)cc1)N1CCC[C@H]1C(F)(F)F [BH1-159, (S)-(4-(2-((4-Morpholinophenyl)amino)pyrimidin-4-yl)phenyl) (2-(trifluoromethyl)pyrrolidin-1-yl) methanone] | – | – | –
7 | – | 8.56 nM | – | – | – | 1.4 °C | O=C(c1ccc(-c2ccnc(Nc3ccc(N4CCOCC4)cc3)n2)cc1)N1CCC[C@@H]1C(F)(F)F [BH1-160, (R)-(4-(2-((4-Morpholinophenyl)amino)pyrimidin-4-yl)phenyl) (2-(trifluoromethyl)pyrrolidin-1-yl) methanone] | – | – | –
8 | 2280 nM | – | – | – | – | 0.5 °C | O=C(NC(CO)Cc1ccccc1)c1ccc(-c2ccnc(Nc3ccc(N4CCOCC4)cc3)n2)cc1 (stereo not drawn) [BR1-008] | – | – | –
9 | – | < 0.508 nM | – | 2580 nM | 917 nM | – | CN1CCN(Cc2ccc(Nc3nc(-c4ccc(C(=O)NCC#N)cc4)c4cc[nH]c4n3)cc2)CC1 [RF1-024, N-(Cyanomethyl)-4-(2-((4-((4-methylpiperazin-1-yl)methyl)phenyl)amino)-7H-pyrrolo[2,3-d]pyrimidin-4-yl)benzamide] | 3630 nM | 159 nM | 9490 nM
10 | – | – | 6.8 °C | 870 nM | 4600 nM | – | CN1CCC(c2cnc(Nc3nc(-c4ccc(C(=O)NCC(F)(F)F)cc4)c4cc[nH]c4n3)cc2F)CC1 [RF1-060, 4-(2-((4-Fluoro-5-(1-methylpiperidin-4-yl)pyridin-2-yl)amino)-7H-pyrrolo[2,3-d]pyrimidin-4-yl)-N-(2,2,2-trifluoroethyl)benzamide] | 12000 nM | 909 nM | 2930 nM
11 | 10.3 nM | < 0.508 nM | 15.0 °C and 11.7 °C and 14.7 °C | 4410 nM | 86.2 nM | – | O=C(NCC(F)(F)F)c1ccc(-c2ccnc(Nc3ccc(N4CCOCC4)cc3)n2)cc1 [SR8-169, 4-(2-((4-Morpholinophenyl)amino)pyrimidin-4-yl)-N-(2,2,2-trifluoroethyl)benzamide] | 83.5 nM | 15.1 nM | 214 nM
